Earlier results in patent US5399700A, “Method for preparing enteric-coated oral drugs containing acid-unstable compounds” (Sunkyong Industries Co., Ltd., priority 1991, dated 1995).
Where two headings read alike, the source gives them in different places. Blank lines part the entries; values can stand above or below the compound they belong to.

What was measured:
[1] = not given; remark: listed apart in the source
[2] = Table 9

Structure (SMILES): COc1ccc2[nH]c([S+]([O-])Cc3ncc(C)c(OC)c3C)nc2c1 (stereo not shown) [omeprazole]
- half-life ([1]; medium of below pH 4): 0.167 h
- half-life ([1]; pH 6.8): 18 h
- half-life ([1]; pH 11): about 300 days

Structure (SMILES): CC(C)(C)N [Tert-butylamine]
- pKa [2]: 10.87

Structure (SMILES): CC(C)CN [Isobutylamine]
- pKa [2]: 10.42

Structure (SMILES): CCCCN(CCCC)CCCC [Tributylamine]
- pKa [2]: 10.87

Now from value to compound:

- Ring-opening Half-life (1n hcl): 6.2 h
Structure (SMILES): OC[C@H]1O[C@@H]2O[C@H]3[C@H](O)[C@@H](O)[C@@H](O[C@H]4[C@H](O)[C@@H](O)[C@@H](O[C@H]5[C@H](O)[C@@H](O)[C@@H](O[C@H]6[C@H](O)[C@@H](O)[C@@H](O[C@H]7[C@H](O)[C@@H](O)[C@@H](O[C@H]1[C@H](O)[C@H]2O)O[C@@H]7CO)O[C@@H]6CO)O[C@@H]5CO)O[C@@H]4CO)O[C@@H]3CO [α-CD, α-cyclodextrin]

- Ring-opening Half-life (60° C., 1N HCl): 5.4 h
Structure (SMILES): OC[C@H]1O[C@@H]2O[C@H]3[C@H](O)[C@@H](O)[C@@H](O[C@H]4[C@H](O)[C@@H](O)[C@@H](O[C@H]5[C@H](O)[C@@H](O)[C@@H](O[C@H]6[C@H](O)[C@@H](O)[C@@H](O[C@H]7[C@H](O)[C@@H](O)[C@@H](O[C@H]8[C@H](O)[C@@H](O)[C@@H](O[C@H]1[C@H](O)[C@H]2O)O[C@@H]8CO)O[C@@H]7CO)O[C@@H]6CO)O[C@@H]5CO)O[C@@H]4CO)O[C@@H]3CO [β-CD, β-cyclodextrin]

- pKa [2]: 10.57
Structure (SMILES): CCCN [Propylamine]

- Ring-opening Half-life (60° C., 1N HCl): 3.0 h
Structure (SMILES): OC[C@H]1O[C@@H]2O[C@H]3[C@H](O)[C@@H](O)[C@@H](O[C@H]4[C@H](O)[C@@H](O)[C@@H](O[C@H]5[C@H](O)[C@@H](O)[C@@H](O[C@H]6[C@H](O)[C@@H](O)[C@@H](O[C@H]7[C@H](O)[C@@H](O)[C@@H](O[C@H]8[C@H](O)[C@@H](O)[C@@H](O[C@H]9[C@H](O)[C@@H](O)[C@@H](O[C@H]1[C@H](O)[C@H]2O)O[C@@H]9CO)O[C@@H]8CO)O[C@@H]7CO)O[C@@H]6CO)O[C@@H]5CO)O[C@@H]4CO)O[C@@H]3CO [γ-CD]
